Source: paper PMC5789847, “Bismuth antimicrobial drugs serve as broad-spectrum metallo-β-lactamase inhibitors” (Nature Communications, 2018)

Columns and labels:
NDM-HK (NDM-1^+) = assay: microbe, parasite or virus in culture; format: cell-based, E. coli; conditions: Escherichia coli
Experimental: (§1) MIC values were determined by standard broth micro-dilution method (Clinical and Laboratory Standards Institute (CLSI) M100-S20, 2010)[64]. Briefly, bacterial cells were cultured in LB broth overnight at 37 °C at 250 rpm and the OD was measured at 600 nm (OD600). The bacterial density was adjusted to about 1 × 10^6 CFU mL^−1 and checked by CFU counting on agar plates afterwards. Tested antibiotics or Bi(III) compounds were added triplicately into individual wells of flat-bottomed 96-well plates and performed 2-fold serial dilution, followed by addition of prepared bacterial inocula. The plate was then incubated at 37 °C for overnight. […] The MIC was determined as the lowest concentration of a drug that could inhibit the growth of microorganism by both visual reading and OD reading at 600 nm using a microtiter plate reader.
(§2) Resulting growth (or lack of growth) was examined after overnight culturing and the lowest concentration that inhibits 99.9% of the original culture was taken as MBC.
(§3) Other procedures were kept strictly the same. […] Synergism was defined when FICI ≤ 0.5, indifference was defined when FICI > 0.5 and < 4, and antagonism was defined when FICI≥4[65]. […] All of the determinations were performed at least in triplicate on different days.

IMP-BL21 (IMP-4^+) = assay: microbe, parasite or virus in culture; format: cell-based, E. coli
Experimental: as §1, §2, §3

VIM-BL21 (VIM-2^+) = assay: microbe, parasite or virus in culture; format: cell-based, E. coli
Experimental: as §1, §2, §3

[1] = system: NDM-K. pneumonia (NDM-1^+); assay: Microdilution MIC/MBC and checkerboard assay; format: cell-based, Klebsiella pneumonia; conditions: NDM-K. pneumonia (NDM-KP)
Experimental: as §1, §2, §3

C208A-Rosetta = assay: Microdilution MIC assay; format: cell-based, E. coli; conditions: Escherichia coli, CBS0, read-out: MIC of MER, CBS at 0
Experimental: For the test of C208A-Rosetta, the growth condition briefly goes as follow. Overnight culture of C208A-Rosetta was diluted into fresh LB medium (1000-fold) and regrew to OD ~0.6. The overexpression of NDM-1-C208A was induced by addition of 200 μM isopropyl β-D-1-thiogalactopyranoside (IPTG) for 18 h at 25 °C. The following susceptibility test was performed as described in the Microdilution MIC and MBC assay section in the methodology by using the resulting bacterial pellets with the supplementation of 200 μM IPTG.
(§4) Other procedures were kept strictly the same.

NDM-HK [2] = assay: Murine peritonitis infection, mucin-assisted model; format: in vivo, BALB/c mice; conditions: 2% mucin, i.p. twice daily
Text: All experiments were approved by, and performed in accordance with the guidelines approved by Committee on the Use of Live Animals in Teaching and Research (CULATR), the University of Hong Kong. A total of 6–8-week-old, female BALB/c mice (18–22 g) were purchased from Charles River Laboratories, Inc. and were used in all mouse studies. The animals were randomized to cages for each experiment.
In mucin-assisted model, for infection with NDM-1-positive bacteria, an overnight culture of NDM-HK was performed 1:250 dilution in 100 mL LB broth and re-grew to about OD600 0.3 in a 500-mL flask after 2.5 h shaking at 37 °C, 250 rpm. Bacterial pellets were collected and washed by PBS buffer three times for further use. Mice were infected intraperitoneally (i.p.) with a dose of 1 × 10^5 CFU of bacteria in PBS supplemented with 2% mucin. […] Twice-daily treatment via i.p. injection was continued throughout the whole experimental course. For the infection with NDM-1-negative bacteria, all the operations of infection were similar to those used for NDM-HK, except that NDM-HK PCV was used as infection-causing bacteria. […] Twice-daily treatment via i.p. injection was continued throughout the whole experimental course. Body weights and mice survival were monitored till endpoint of the experiment.

NDM-BL21 = assay: Microdilution MIC assay; format: cell-based, E. coli; conditions: Escherichia coli, CBS0, read-out: MIC of MER, CBS at 0
Text: as §4

NDM-Rosetta = assay: Microdilution MIC assay; format: cell-based, E. coli; conditions: Escherichia coli, CBS0, read-out: MIC of MER, CBS at 0
Text: as §4

[3] = system: NDM-C. freundii (NDM-1^+); assay: Microdilution MIC/MBC and checkerboard assay; format: cell-based, Citrobacter freundii; conditions: NDM-C. freundii (NDM-CF)
Experimental: as §1, §2, §3

NDM-Rosetta OX = assay: Microdilution MIC assay; format: cell-based, E. coli; conditions: Escherichia coli, CBS0, read-out: MIC of MER, CBS at 0, NDM-Rosetta OX (NDM-1 overexpressing); CBS 0 µg mL-1
Experimental: For the test of NDM-Rosetta OX, the growth condition briefly goes as follow. Overnight culture of NDM-Rosetta was 1000-fold diluted into fresh LB medium and regrew to OD ~0.6. The overexpression of NDM-1 was induced by addition of 1 mM isopropyl β-D-1-thiogalactopyranoside (IPTG) for 4 h at 37 °C. The following susceptibility test was performed as described in the Microdilution MIC and MBC assay section in the methodology by using the resulting bacterial pellets with the supplementation of 200 µM IPTG.
as §4

NDM-HK [4] = assay: Resistance study: MPC and mutation frequency; format: cell-based, E. coli; conditions: no CBS
NDM-HK [5] = assay: In vitro cell infection assay (MDCK cells); format: cell-based, E. coli; conditions: MOI 200, MER at 2-fold MIC alone, overnight
Experimental: MDCK cell was cultured in minimum essential Media (MEM) supplemented with fetal bovine serum (FBS, 10%) and grown at 37 °C in 5% CO2-humidified atmosphere for 3 days. About 1.0 × 10^5 MDCK cells were seeded per well in 24-well plates and incubated as described above for 48 h to ensure confluency. Logarithmic cultures of NDM-HK were washed with PBS for three times and re-suspended in MEM/10% FBS resulting in the initial bacterial density of about 2.0 × 10^7 CFU mL^−1. Then, 500 μL of bacterial suspension were added to each well and substituted for the previous MDCK culture medium. The plates were centrifuged at 800 × g for 10 min and then incubated for another 6 h, executing the bacterial infection at multiplicity of infection (MOI) of 200. We then used two infection models for examination, viz, the cell-associated bacterial infection and cell-invaded bacterial infection. The cell-associated bacteria are herein defined as bacteria that attach to, penetrate, or transcytose in MDCK cells, while the cell-invaded bacteria are defined as bacteria that penetrate or transcytose MDCK cells. For the cell-invaded infection, the infected cells were incubated in culture medium supplemented with ciprofloxacin (100 µg mL^−1) for 1 h to remove extracellular bacteria. Then, the treated cells were washed vigorously with PBS for six times and replenished with culture medium. For the cell-associated infection, the infected cells were only washed vigorously with PBS for six times to remove unbound bacteria. The infected MDCK cells were then exposed to either MER or CBS, or their combination for overnight under identical cell culture condition. Cells in the absence of drugs served as a control. The bacterial loads were examined by lysing MDCK cells with 1% Triton X-100 in PBS and serially diluting the resulting lysates to enumerate bacterial colonies by agar plating. The assay was performed in triplicate, repeated three times, and results were expressed as average ± SD.

NDM-HK PCV = assay: Murine peritonitis infection with NDM-1-negative bacteria; format: in vivo, BALB/c mice; conditions: identical dose of MER, lethal dose of NDM-HK PCV
[6] = Escherichia coli, read-out: MBC of MER alone
[7] = Escherichia coli, read-out: MIC of MER alone

**Q.** Which MIC (NDM-HK (NDM-1^+); CBS0, read-out: MIC of MER alone) does the source give for `C[C@@H](O)[C@H]1C(=O)N2C(C(=O)O)=C(S[C@@H]3CN[C@H](C(=O)N(C)C)C3)[C@H](C)[C@H]12` [MER, meropenem] here?
**A.** 16 µg/mL

**Q.** And the MBC (NDM-HK (NDM-1^+); read-out: MBC of MER alone)?
**A.** 16 µg/mL

**Q.** And the MBC (IMP-BL21 (IMP-4^+); [6])?
**A.** 32 µg/mL

**Q.** And the MIC (IMP-BL21 (IMP-4^+); [7])?
**A.** 32 µg/mL

**Q.** And the “MBC of MER alone” value (IMP-BL21 (IMP-4^+); IMP-BL21)?
**A.** 32/32 µg mL^-1

**Q.** What about the “MIC of MER alone” value (IMP-BL21 (IMP-4^+); IMP-BL21) of the same molecule?
**A.** 32/32 µg mL^-1

**Q.** And the MBC (VIM-BL21 (VIM-2^+); [6])?
**A.** 32 µg/mL

**Q.** What about the MIC (VIM-BL21 (VIM-2^+); [7]) of the same molecule?
**A.** 32 µg/mL

**Q.** What about the “MBC of MER alone” value (VIM-BL21 (VIM-2^+); VIM-BL21) of the same molecule?
**A.** 32/32 µg mL^-1

**Q.** And the “MIC of MER alone” value (VIM-BL21 (VIM-2^+); VIM-BL21)?
**A.** 32/32 µg mL^-1

**Q.** And the MBC ([1]; Klebsiella pneumoniae, read-out: MBC of MER alone)?
**A.** 16 µg/mL

**Q.** What about the MIC ([1]; Klebsiella pneumoniae, read-out: MIC of MER alone) of the same molecule?
**A.** 16 µg/mL

**Q.** And the “MBC of MER alone” value [1]?
**A.** 16/16 µg mL^-1

**Q.** And the “MIC of MER alone” value [1]?
**A.** 16/16 µg mL^-1

**Q.** What about the MIC (C208A-Rosetta) of the same molecule?
**A.** 0.12 µg/mL

**Q.** What about the “mice rescued at endpoint, MER monotherapy” value (NDM-HK [2]) of the same molecule?
**A.** two of the eight mice

**Q.** What about the MIC (NDM-BL21) of the same molecule?
**A.** 16 µg/mL

**Q.** What about the MIC (NDM-Rosetta) of the same molecule?
**A.** 32 µg/mL

**Q.** And the MBC ([3]; Citrobacter freundii, read-out: MBC of MER alone)?
**A.** 8 µg/mL

**Q.** What about the MIC ([3]; Citrobacter freundii, read-out: MIC of MER alone) of the same molecule?
**A.** 8 µg/mL

**Q.** What about the “MBC of MER alone” value [3] of the same molecule?
**A.** 8/8 µg mL^-1

**Q.** What about the “MIC of MER alone” value [3] of the same molecule?
**A.** 8/8 µg mL^-1

**Q.** What about the MIC (NDM-Rosetta OX) of the same molecule?
**A.** 256 µg/mL

**Q.** And the “MPC of MER alone” value (NDM-HK [4])?
**A.** 32 folds of MIC

**Q.** What about the “viable bacterial loads, cell-associated infection” value (NDM-HK [5]) of the same molecule?
**A.** ~10^6 CFU

**Q.** And the “outcome of MER monotherapy in mice infected with NDM-HK PCV” value (NDM-HK PCV)?
**A.** cured all the mice
